42 substances from patent US20230293630A1, “Coronavirus T Cell Epitopes and Uses Thereof” (priority 2020, published 2023) can be followed below.

Values joined by “and” are separate entries in the source; they are usually repeats but may differ in a detail not shown here. Identical values can stand only once.

The first assay concerns human T cells. As to the kind of experiment: T cell cytokine SFC response to cross-reactive CD4 epitopes (Tables 6-8). Type of assay: cell-based. Conditions: cross-reactive CD4 non-spike SARS-CoV-2 epitopes; all cytokines.
With 820 (EEIAIILASFSASTS) [compound 820], the “Total SFC” value was found to be 13813 SFC.
For 807 (LAILTALRLCAYCCN) [compound 807], the “Total SFC” value is reported as 1800 SFC.
Regarding 246 (DAALALLLLDRLNQL) [compound 246], the “Total SFC” value worked out at 3813 SFC.
For 248 (PSGTWLTYTGAIKLD) [compound 248], the “Total SFC” value came to 1227 SFC.
Regarding 806 (SEETGTLIVNSVLLF) [compound 806], the “Total SFC” value was determined as 267 SFC.
Turning to 847 (MKIILFLALITLATC) [compound 847], the “Total SFC” value amounted to 373 SFC.
Regarding 245 (DDQIGYYRRATRRIR) [compound 245], the “Total SFC” value is 787 SFC.
Turning to 849 (LYSPIFLIVAAIVFI) [compound 849], the “Total SFC” value worked out at 520 SFC.
As to 846 (YIINLIIKNLSKSLT) [compound 846], the “Total SFC” value is reported as 1393 SFC.
On the same count and under the same terms, as for 848 (VKHVYQLRARSVSPK) [compound 848], the figure is 3640 SFC; as for 247 (LLLLDRLNQLESKMS) [compound 247], 1053 SFC.

The same assay, now with this note: cross-reactive CD4 non-spike epitopes; IFNg spot forming cells.
The substance 820 (EEIAIILASFSASTS) [compound 820] gave an IFNg of 7773.
807 (LAILTALRLCAYCCN) [compound 807] displayed an IFNg of 1760.
Still for that read-out and setting: as for 246 (DAALALLLLDRLNQL) [compound 246], the figure is 3520; as for 248 (PSGTWLTYTGAIKLD) [compound 248], 947.
On the same count and under the same terms, as for 806 (SEETGTLIVNSVLLF) [compound 806], the figure is 267.
Take 847 (MKIILFLALITLATC) [compound 847]: the IFNg came out at 293.
As to 245 (DDQIGYYRRATRRIR) [compound 245], the IFNg is recorded as 400.
Turning to 849 (LYSPIFLIVAAIVFI) [compound 849], the IFNg is recorded as 400.
In turn, 846 (YIINLIIKNLSKSLT) [compound 846] showed an IFNg of 1283.
The same measure, in the same setting: under 848 (VKHVYQLRARSVSPK) [compound 848] stands 2947.
Still for that read-out and setting: under 247 (LLLLDRLNQLESKMS) [compound 247] stands 1053.

The same assay, now with this note: cross-reactive CD4 non-spike epitopes; IL5 spot forming cells.
Consider 820 (EEIAIILASFSASTS) [compound 820], for which the IL5 is 1587.
In turn, 807 (LAILTALRLCAYCCN) [compound 807] returned an IL5 of 0.
Same read-out and setting: as for 246 (DAALALLLLDRLNQL) [compound 246], the figure is 0.
Regarding 248 (PSGTWLTYTGAIKLD) [compound 248], the IL5 was 0.
With 806 (SEETGTLIVNSVLLF) [compound 806], the IL5 is listed as 0.
For the substance 847 (MKIILFLALITLATC) [compound 847], the IL5 is reported as 0.
In turn, 245 (DDQIGYYRRATRRIR) [compound 245] had an IL5 of 0.
Turning to 849 (LYSPIFLIVAAIVFI) [compound 849], the IL5 is on record as 0.
For 846 (YIINLIIKNLSKSLT) [compound 846], the IL5 was determined as 0.
In turn, 848 (VKHVYQLRARSVSPK) [compound 848] had an IL5 of 227.
Take 247 (LLLLDRLNQLESKMS) [compound 247]: the IL5 stood at 0.

The assay is the same for the next values; noted with them: cross-reactive CD4 non-spike epitopes; IL13 spot forming cells.
820 (EEIAIILASFSASTS) [compound 820] yielded an IL13 of 1507.
807 (LAILTALRLCAYCCN) [compound 807] gave an IL13 of 0.
On the same count and under the same terms, as for 246 (DAALALLLLDRLNQL) [compound 246], the figure is 0; as for 248 (PSGTWLTYTGAIKLD) [compound 248], 0; as for 806 (SEETGTLIVNSVLLF) [compound 806], 0.
Take 847 (MKIILFLALITLATC) [compound 847]: the IL13 is 0.
Same read-out and setting: as for 245 (DDQIGYYRRATRRIR) [compound 245], the figure is 120.
As to 849 (LYSPIFLIVAAIVFI) [compound 849], the IL13 was 0.
The same measure, in the same setting: under 846 (YIINLIIKNLSKSLT) [compound 846] stands 0; under 848 (VKHVYQLRARSVSPK) [compound 848], 0.
In turn, 247 (LLLLDRLNQLESKMS) [compound 247] registered an IL13 of 0.

A further assay deals with SARS-CoV-2-specific CD4+ T cells (OX40+CD137+) in PBMC.
Test: not given
Type of assay: cell-based, human.
Settings: not given
For the substance SSANNCTFEYVSQPF, the “Frequency of response (%)” value stood at 27%, the “Magnitude by # of responding donors” value was 1426 and the Sum of response was determined as 4279.
Turning to CLVGLMWLSYFIASF, the “Frequency of response (%)” value came to 33%, the “Magnitude by # of responding donors” value is given as 295 and the Sum of response is listed as 1181.
Turning to SELVIGAVILRGHLR, the “Frequency of response (%)” value worked out at 33%, the “Magnitude by # of responding donors” value was 141 and the Sum of response is 563.

The assay is the same for the next values; noted with them: CD4+ T cell epitopes identified by AIM assay; percent of tested donors responding.
Consider KPSKRSFIEDLLFNK, for which the “Frequency of response (%)” value is reported as 17%.
As for VFAQVKQIYKTPPIK, the “Frequency of response (%)” value is reported as 8%.
With IVRFPNITNLCPFGE, the “Frequency of response (%)” value was 9%.

The same assay, now with this note: CD4+ T cell epitopes identified by AIM assay; share of donors responding.
For ASRELKVTFFPDLNG, the “Frequency of response (%)” value is 15%.
As for VNLTTRTQLPPAYTN, the “Frequency of response (%)” value was found to be 8%.
With SVLYNSASFSTFKCY, the “Frequency of response (%)” value stood at 8%.
For GVPINTNSSPDDQIG, the “Frequency of response (%)” value is given as 8%.
On to TFGGPSDSTGSNQNG, for which the “Frequency of response (%)” value is recorded as 6%.
With DVFHLYLQYIRKLHD, the “Frequency of response (%)” value was 7%.
Still for that read-out and setting: under EIYQAGSTPCNGVEG stands 8%; under NHTKKWKYPQVNGLT, 9%; under AVTANVNALLSTDGN, 7%.
For the substance VVLSFELLHAPATVC, the “Frequency of response (%)” value was found to be 7%.
On to TPPIKDFGGFNFSQI, for which the “Frequency of response (%)” value is on record as 8%.
As for LIFLWLLWPVTLACF, the “Frequency of response (%)” value is given as 8%.
As to SDVLYQPPQTSITSA, the “Frequency of response (%)” value stood at 8%.

The assay is the same for the next values; noted with them: CD4+ T cell epitopes identified by AIM assay; sum of response per responding donor.
With ASRELKVTFFPDLNG, the “Magnitude by # of responding donors” value is 162.
As to VNLTTRTQLPPAYTN, the “Magnitude by # of responding donors” value was determined as 170.
In the case of SVLYNSASFSTFKCY, the “Magnitude by # of responding donors” value was found to be 892.
On the same count and under the same terms, as for KPSKRSFIEDLLFNK, the figure is 622; as for GVPINTNSSPDDQIG, 108.
On to VFAQVKQIYKTPPIK, for which the “Magnitude by # of responding donors” value amounted to 268.
As for TFGGPSDSTGSNQNG, the “Magnitude by # of responding donors” value is reported as 291.
As to DVFHLYLQYIRKLHD, the “Magnitude by # of responding donors” value worked out at 247.
For EIYQAGSTPCNGVEG, the “Magnitude by # of responding donors” value amounted to 1121.
In the case of NHTKKWKYPQVNGLT, the “Magnitude by # of responding donors” value turned out to be 123.
As to AVTANVNALLSTDGN, the “Magnitude by # of responding donors” value worked out at 201.
Take VVLSFELLHAPATVC: the “Magnitude by # of responding donors” value is 317.
Turning to TPPIKDFGGFNFSQI, the “Magnitude by # of responding donors” value is recorded as 421.
For LIFLWLLWPVTLACF, the “Magnitude by # of responding donors” value came to 1194.
The same measure, in the same setting: as for SDVLYQPPQTSITSA, the figure is 394; as for IVRFPNITNLCPFGE, 107.

Staying with this assay, now noted: CD4+ T cell epitopes identified by AIM assay; total response.
ASRELKVTFFPDLNG: the Sum of response was 324.
The same measure, in the same setting: as for VNLTTRTQLPPAYTN, the figure is 170; as for SVLYNSASFSTFKCY, 892; as for GVPINTNSSPDDQIG, 108.
On the same count and under the same terms, under TFGGPSDSTGSNQNG stands 291; under DVFHLYLQYIRKLHD, 247.
For the substance EIYQAGSTPCNGVEG, the Sum of response was determined as 1121.
Still for that read-out and setting: under NHTKKWKYPQVNGLT stands 123.
AVTANVNALLSTDGN came in with a Sum of response of 201.
The substance VVLSFELLHAPATVC showed a Sum of response of 317.
Same read-out and setting: as for TPPIKDFGGFNFSQI, the figure is 421; as for LIFLWLLWPVTLACF, 1194.
Regarding SDVLYQPPQTSITSA, the Sum of response is on record as 394.

The assay is the same for the next values; noted with them: CD4+ T cell epitopes identified by AIM assay; total response summed over donors.
Substance KPSKRSFIEDLLFNK showed a Sum of response of 1243.
Still for that read-out and setting: as for VFAQVKQIYKTPPIK, the figure is 268; as for IVRFPNITNLCPFGE, 107.

A further assay has as its system SARS-CoV-2-specific CD8+ T cells (CD69+CD137+) in PBMC.
Test: not given
Type of assay: cell-based, human.
Settings: not given
As to EPVLKGVKL, the “Frequency of positive response” value was 20, the Magnitude of response turned out to be 313 and the Sum of response is 313.
Take AAISDYDYYR: the “Frequency of positive response” value was 100, the Magnitude of response amounted to 290 and the Sum of response is on record as 290.
For VTYVPAQEK, the “Frequency of positive response” value is 33 and 25; the Magnitude of response was 435 and 235; the Sum of response is 435 and 235.
For the substance AISDYDYYR, the “Frequency of positive response” value is 100, the Magnitude of response is listed as 173 and the Sum of response was 173.
On to RLQSLQTY, for which the “Frequency of positive response” value is 33, the Magnitude of response was found to be 142 and the Sum of response came to 142.
For KTFPPTEPKKDKKK, the “Frequency of positive response” value is on record as 50, the Magnitude of response worked out at 122 and the Sum of response is reported as 122.
For the substance YQDVNCTEV, the “Frequency of positive response” value is 50, the Magnitude of response was 243 and the Sum of response is 243.
For YKTFPPTEPK, the “Frequency of positive response” value was determined as 50, the Magnitude of response is on record as 139 and the Sum of response worked out at 139.
Consider KAYNVTQAF, for which the “Frequency of positive response” value is 50 and 33.
For the substance SEPVLKGVKL, the “Frequency of positive response” value turned out to be 40, the Magnitude of response was determined as 251 and the Sum of response came out at 501.
Turning to EILPVSMTK, the “Frequency of positive response” value is 25 and 50.
As for HTTDPSFLGR, the “Frequency of positive response” value turned out to be 50, the Magnitude of response is 312 and the Sum of response is given as 312.
